Assays:
Format in all cases: in vivo
Settings in all cases: evaluated after 13 days
Setaria faberi (SETFA) [1] = assay: Post-emergence glasshouse herbicide test
Protocol: (§1) Seeds of a variety of test species are sown in standard soil in pots (Lolium perenne (LOLPE), Amaranthus retoflexus (AMARE), Abutilon theophrasti (ABUTH), Setaria faberi (SETFA), Echinochloa crus-galli (ECHCG), Ipomoea hederacea (IPOHE)). After cultivation for one day (pre-emergence) or after 8 days cultivation (post-emergence) under controlled conditions in a glasshouse (at 24/16° C., day/night; 14 hours light; 65% humidity), the plants are sprayed with an aqueous spray solution derived from the formulation of the technical active ingredient in acetone/water (50:50) solution containing 0.5% Tween™ 20 (polyoxyethelyene sorbitan monolaurate, CAS RN 9005-64-5). Compounds are applied at 125 g/h unless otherwise indicated. The test plants are then grown in a glasshouse under controlled conditions in a glasshouse (at 24/16° C., day/night; 14 hours light; 65% humidity) and watered twice daily. After 13 days for pre- and post-emergence, the test is evaluated for the percentage damage caused to the plant. The biological activities are shown in the following table on a five-point scale (5=80-100%; 4=60-79%; 3=40-59%; 2=20-39%; 1=0-19%).

[2] = system: Abutilon theophrasti (ABUTH); assay: Post-emergence glasshouse herbicide test
Protocol: as §1

[3] = system: Echinochloa crus-galli (ECHCG); assay: Post-emergence glasshouse herbicide test
Protocol: as §1

[4] = system: Amaranthus retoflexus (AMARE); assay: Post-emergence glasshouse herbicide test
Protocol: as §1

[5] = system: Ipomoea hederacea (IPOHE); assay: Post-emergence glasshouse herbicide test
Protocol: as §1

Setaria faberi (SETFA) [6] = assay: Pre-emergence glasshouse herbicide test
Protocol: as §1

[7] = system: Abutilon theophrasti (ABUTH); assay: Pre-emergence glasshouse herbicide test
Protocol: as §1

[8] = system: Echinochloa crus-galli (ECHCG); assay: Pre-emergence glasshouse herbicide test
Protocol: as §1

[9] = system: Amaranthus retoflexus (AMARE); assay: Pre-emergence glasshouse herbicide test
Protocol: as §1

[10] = system: Ipomoea hederacea (IPOHE); assay: Pre-emergence glasshouse herbicide test
Protocol: as §1

SMILES	percentage damage caused to the plant, SETFA (Setaria faberi (SETFA) [1]; 125 g/h)	percentage damage caused to the plant, ABUTH ([2]; 125 g/h)	percentage damage caused to the plant, ECHCG ([3]; 125 g/h)	percentage damage caused to the plant, AMARE ([4]; 125 g/h)	percentage damage caused to the plant, IPOHE ([5]; 125 g/h)	percentage damage caused to the plant, SETFA (Setaria faberi (SETFA) [6]; 125 g/h)	percentage damage caused to the plant, ABUTH ([7]; 125 g/h)	percentage damage caused to the plant, ECHCG ([8]; 125 g/h)	percentage damage caused to the plant, AMARE ([9]; 125 g/h)	percentage damage caused to the plant, IPOHE ([10]; 125 g/h)	percentage damage caused to the plant, SETFA (Setaria faberi (SETFA) [1]; *Applied at 250 g/ha)	percentage damage caused to the plant, ABUTH ([2]; *Applied at 250 g/ha)	percentage damage caused to the plant, ECHCG ([3]; *Applied at 250 g/ha)	percentage damage caused to the plant, AMARE ([4]; *Applied at 250 g/ha)	percentage damage caused to the plant, IPOHE ([5]; *Applied at 250 g/ha)	percentage damage caused to the plant, SETFA (Setaria faberi (SETFA) [6]; *Applied at 250 g/ha)	percentage damage caused to the plant, ABUTH ([7]; *Applied at 250 g/ha)	percentage damage caused to the plant, ECHCG ([8]; *Applied at 250 g/ha)	percentage damage caused to the plant, AMARE ([9]; *Applied at 250 g/ha)	percentage damage caused to the plant, IPOHE ([10]; *Applied at 250 g/ha)
CC(C)S(=O)(=O)c1c(OC(F)F)ccc(C(=O)Nc2nnnn2C)c1Cl [Compound 1.054]	4 (4=60-79%)	4 (4=60-79%)	4 (4=60-79%)	4 (4=60-79%)	4 (4=60-79%)	5 (5=80-100%)	5 (5=80-100%)	5 (5=80-100%)	5 (5=80-100%)	4 (4=60-79%)										
CSc1c(OC(F)(F)C(F)F)ccc(C(=O)Nc2nnnn2C)c1Cl [Compound 1.009, 2-chloro-3-methylsulfanyl-N-(1-methyltetrazol-5-yl)-4-(1,1,2,2-tetrafluoroethoxy)benzamide]	4 (4=60-79%)	4 (4=60-79%)	4 (4=60-79%)	4 (4=60-79%)	4 (4=60-79%)	5 (5=80-100%)	4 (4=60-79%)	5 (5=80-100%)	5 (5=80-100%)	3 (3=40-59%)										
Cc1nnc(NC(=O)c2ccc(OC(F)(F)F)c(S(C)(=O)=O)c2Cl)o1 [Compound 2.005]											5 (5=80-100%)	5 (5=80-100%)	5 (5=80-100%)	5 (5=80-100%)	5 (5=80-100%)	5 (5=80-100%)	5 (5=80-100%)	5 (5=80-100%)	5 (5=80-100%)	1 (1=0-19%)
CC[S+]([O-])c1c(OC(F)F)ccc(C(=O)Nc2nnnn2C)c1C (centres unmarked) [Compound 1.029]	5 (5=80-100%)	5 (5=80-100%)	5 (5=80-100%)	5 (5=80-100%)	5 (5=80-100%)	5 (5=80-100%)	5 (5=80-100%)	5 (5=80-100%)	5 (5=80-100%)	4 (4=60-79%)										
CCSc1c(OC(F)(F)F)ccc(C(=O)Nc2nnnn2C)c1Cl [Compound 1.021]	5 (5=80-100%)	5 (5=80-100%)	5 (5=80-100%)	4 (4=60-79%)	5 (5=80-100%)	5 (5=80-100%)	4 (4=60-79%)	5 (5=80-100%)	5 (5=80-100%)	3 (3=40-59%)										
CC[S+]([O-])c1c(OC(F)(F)F)ccc(C(=O)Nc2nnnn2C)c1C (centres unmarked) [Compound 1.023]	5 (5=80-100%)	5 (5=80-100%)	5 (5=80-100%)	5 (5=80-100%)	5 (5=80-100%)	5 (5=80-100%)	5 (5=80-100%)	5 (5=80-100%)	5 (5=80-100%)	5 (5=80-100%)										
CCS(=O)(=O)c1c(OC(F)(F)F)ccc(C(=O)Nc2nnc(C)o2)c1C [Compound 2.011]	5 (5=80-100%)	5 (5=80-100%)	5 (5=80-100%)	5 (5=80-100%)	4 (4=60-79%)	5 (5=80-100%)	5 (5=80-100%)	5 (5=80-100%)	5 (5=80-100%)	5 (5=80-100%)										
CC[S+]([O-])c1c(CC(F)(F)F)ccc(C(=O)Nc2nnnn2C)c1Cl (centres unmarked) [Compound 1.020]	5 (5=80-100%)	5 (5=80-100%)	5 (5=80-100%)	5 (5=80-100%)	5 (5=80-100%)	5 (5=80-100%)	5 (5=80-100%)	5 (5=80-100%)	5 (5=80-100%)	5 (5=80-100%)										
CCSc1c(OCC(F)(F)F)ccc(C(=O)Nc2nnnn2C)c1Cl [Compound 1.037]	5 (5=80-100%)	5 (5=80-100%)	5 (5=80-100%)	5 (5=80-100%)	3 (3=40-59%)	3 (3=40-59%)	3 (3=40-59%)	4 (4=60-79%)	5 (5=80-100%)	1 (1=0-19%)										
CCSc1c(OC(F)(F)F)ccc(C(=O)Nc2nnc(C)o2)c1Cl [Compound 2.010]	5 (5=80-100%)	5 (5=80-100%)	5 (5=80-100%)	5 (5=80-100%)	4 (4=60-79%)	5 (5=80-100%)	4 (4=60-79%)	5 (5=80-100%)	5 (5=80-100%)	1 (1=0-19%)										
CCCS(=O)(=O)c1c(OC(F)F)ccc(C(=O)Nc2nnnn2C)c1Cl [Compound 1.050]	5 (5=80-100%)	5 (5=80-100%)	5 (5=80-100%)	5 (5=80-100%)	4 (4=60-79%)	5 (5=80-100%)	5 (5=80-100%)	5 (5=80-100%)	5 (5=80-100%)	3 (3=40-59%)										
CCn1nnnc1NC(=O)c1ccc(OC(F)(F)F)c(S(=O)(=O)CC)c1C [Compound 1.046]	5 (5=80-100%)	5 (5=80-100%)	5 (5=80-100%)	5 (5=80-100%)	5 (5=80-100%)	5 (5=80-100%)	5 (5=80-100%)	5 (5=80-100%)	5 (5=80-100%)	5 (5=80-100%)										
CCn1nnnc1NC(=O)c1ccc(OC(F)F)c(S(=O)(=O)CC)c1Cl [Compound 1.049]	5 (5=80-100%)	5 (5=80-100%)	5 (5=80-100%)	5 (5=80-100%)	4 (4=60-79%)	5 (5=80-100%)	5 (5=80-100%)	5 (5=80-100%)	5 (5=80-100%)	5 (5=80-100%)										
Cc1c(C(=O)Nc2nnnn2C)ccc(OC(F)(F)F)c1S(C)(=O)=O [Compound 1.013]	5 (5=80-100%)	5 (5=80-100%)	5 (5=80-100%)	5 (5=80-100%)	5 (5=80-100%)	5 (5=80-100%)	5 (5=80-100%)	5 (5=80-100%)	5 (5=80-100%)	5 (5=80-100%)										

Source: patent US20220402882A1, “HERBICIDAL COMPOUNDS” (SYNGENTA CROP PROTECTION AG, priority 2019, published 2022)
